Earlier results in patent US20140271816A1, “TREATMENT OF POTENTIAL PLATELET AGGREGATION WITH LIPOSOMALLY FORMULATED GLUTATHIONE AND CLOPIDOGREL” (priority 2013, published 2014).
Read-outs that look alike come from different tables or passages of the source. Blank lines part the entries; values can stand above or below the molecule they belong to.

Legend:
[1] = oral, 75 mg clopidogrel (base)
[2] = rat; for toxin remaining: Co-60 in liver
[3] = humans, plain non-formulated glutathione

Compound: CC(=O)N[C@@H](CS)C(=O)O [NAC, N-Acetyl cysteine]
activity in forming the AM relative to GSH (percent of the activity of GSH): less than 10%

peak plasma levels of the main circulating metabolite [1]: approx. 3 mg/L
time of peak plasma levels after dosing ([1]; main circulating metabolite): approximately one
Compound: COC(=O)[C@H](c1ccccc1Cl)N1CCc2sccc2C1 [Clopidogrel, clopidogrel]

Compound: N[C@@H](CCC(=O)N[C@@H](CS)C(=O)NCC(=O)O)C(=O)O [Plain glutathione, reduced glutathione]
rank as reducing agent needed to form the active metabolites of clopidogrel (ex vivo studies): best reducing agent
toxin remaining ([2]; intravenous administration): 36%
toxin remaining ([2]; oral administration): 100%
removal of toxin / radiotagged marker (Co-60) from the liver ([2]; intravenous administration): 64%
removal of toxin / radiotagged marker (Co-60) from the liver ([2]; oral administration): 0%
removal of toxin / radiotagged marker (Co-60) from the liver ([2]; oral administration, listed as plain GSH): no function
absorption after oral administration ([3]; listed as glutathione): not absorbed well
absorption after oral administration ([3]; listed as plain GSH): not absorbed
absorption after oral administration ([3]; listed as plain glutathione): not absorbed
